Source: article PMC9182348, “Adamantane-Monoterpenoid Conjugates Linked via Heterocyclic Linkers Enhance the Cytotoxic Effect of Topotecan” (Molecules, 2022)
“Also recorded” adds a separate entry of the source. One block for each molecule: values may come before it.

Tests used:
[1] = system: HEK293A cells; assay: Influence of compounds on topotecan cytotoxicity, HEK293A; type: cell-based, human
Protocol: (§1) Then, we tested the ability of the adamantane–monoterpenoid derivatives to sensitize cells to the action of topotecan. For this, we chose a low-toxic concentration 20 μM and varied the concentrations of topotecan (Supplementary Figure S3).
(§2) In the reverse experiment, when the concentrations of the compounds were varied with 30 nM topotecan (in the experiments with HEK293A cells) or 3 μM topotecan (in the experiments with HeLa cells), respectively, a noticeable synergistic effect on HeLa cells was already observed at low concentrations of TDP1 inhibitors (1 and 5 μM) (Supplementary Figure S4). Given that the IC50 values for these compounds are >5 μM, this also indicates the presence of other targets in addition to TDP1.
(§3) The cytotoxicity of the compounds to HeLa (human cervical cancer) and HEK293A (human embryonic kidney) cell lines was examined using the EZ4U Cell Proliferation and Cytotoxicity Assay (Biomedica, Vienna, Austria), according to the manufacturer’s protocols. The cells were grown in DMEM (Dulbecco’s Modified Eagle’s Medium) with 50 IU/mL penicillin, 50 μg/mL streptomycin (MP Biomedicals, Santa Ana, CA, USA), and 10% of fetal bovine serum (Biolot, St. Petersburg, Russia) in a 5% CO2 atmosphere. After formation of a 30–50%-monolayer, the tested compounds were added to the medium. The volume of the added reagents was 1/100 of the total volume of the culture medium, and the amount of DMSO (Sigma, St. Louis, MO, USA) was 1% of the final volume. The cell culture was monitored for 3 days. To assess the influence of the inhibitors on the cytotoxic effect of topotecan (Selleck Chemicals, Houston, TX, USA), 50% cytotoxic concentrations of topotecan and of each inhibitor were determined to attain a defined single-agent effect. Then, a minimum of two independent tests were performed with each inhibitor in combination with topotecan. When using a combination of drugs, TDP1 inhibitors were first added, then topotecan was added immediately (within 10–15 min).

[2] = system: HeLa cells; assay: Combination index (CI) of topotecan and TDP1 inhibitors, CompuSyn; type: cell-based, human
Protocol: For HeLa cells, we calculated the combination index (CI), the parameter that is used to determine the degree of drug interaction. The combination index (CI) values for the different concentrations (Supplementary Figure S3) of topotecan and TDP1 inhibitors were less than one, and for some compounds less than 0.1 (Supplementary Table S1). This indicates a strong synergistic effect of topotecan and […]. The CI values were calculated with the CompuSyn version 1.0 software.
as §3

[3] = Intrinsic cytotoxicity, EZ4U assay, HEK293A; type: cell-based; conditions: human, HEK293A cells, compound alone
Protocol: (§4) Next, we tested the compounds’ intrinsic toxicity against cervical cancer HeLa cells and non-cancerous HEK293A immortalized human embryonic kidney cells using the EZ4U assay format.
as §3

[4] = biological target: TDP1 (Homo sapiens, UniProt Q9NUW8); assay: TDP1 activity, real-time fluorescence biosensor assay; type: biochemical
Sequence of TDP1 (Q9NUW8 whole entry): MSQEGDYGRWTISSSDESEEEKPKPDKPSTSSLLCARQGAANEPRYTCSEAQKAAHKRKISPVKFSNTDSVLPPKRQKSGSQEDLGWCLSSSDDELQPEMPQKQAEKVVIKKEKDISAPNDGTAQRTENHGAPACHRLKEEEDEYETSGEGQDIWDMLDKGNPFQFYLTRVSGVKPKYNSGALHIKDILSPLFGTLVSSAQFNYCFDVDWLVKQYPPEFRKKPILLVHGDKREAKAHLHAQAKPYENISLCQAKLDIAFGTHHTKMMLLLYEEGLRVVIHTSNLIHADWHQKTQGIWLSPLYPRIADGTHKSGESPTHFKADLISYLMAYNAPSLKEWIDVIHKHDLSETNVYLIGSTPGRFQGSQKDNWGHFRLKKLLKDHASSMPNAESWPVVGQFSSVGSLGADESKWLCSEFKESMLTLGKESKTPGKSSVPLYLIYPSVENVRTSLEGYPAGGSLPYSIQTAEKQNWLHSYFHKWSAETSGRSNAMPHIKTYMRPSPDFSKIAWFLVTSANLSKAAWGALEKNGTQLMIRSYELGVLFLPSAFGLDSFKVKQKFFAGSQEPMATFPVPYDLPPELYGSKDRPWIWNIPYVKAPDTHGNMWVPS

[5] = Intrinsic cytotoxicity, EZ4U assay, HeLa; type: cell-based, human; conditions: human, HeLa cells, compound alone, 3 days
Protocol: as §4, §3

[6] = system: HeLa cells; assay: Intrinsic cytotoxicity, EZ4U assay, HeLa; type: cell-based, human; conditions: HeLa and HEK293A cells
Protocol: as §4, §3

[7] = Influence of compounds on topotecan cytotoxicity, HEK293A; type: cell-based, human; conditions: human, HEK293A cells; topotecan alone; read-out: Tpc CC50 HEK293A
Protocol: as §1, §2, §3

[8] = system: HeLa cells; assay: Influence of compounds on topotecan cytotoxicity, HeLa; type: cell-based; conditions: Homo sapiens, topotecan alone, read-out: Tpc CC50 HeLa
Protocol: as §1, §2
The cytotoxicity of the compounds to HeLa (human cervical cancer) and HEK293A (human embryonic kidney) cell lines was examined using the EZ4U Cell Proliferation and Cytotoxicity Assay (Biomedica, Vienna, Austria), according to the manufacturer’s protocols. […] The cell culture was monitored for 3 days. To assess the influence of the inhibitors on the cytotoxic effect of topotecan (Selleck Chemicals, Houston, TX, USA), 50% cytotoxic concentrations of topotecan and of each inhibitor were determined to attain a defined single-agent effect. […]

melting point: 113.5 °C
IC50 [4]: 5.5 ± 1.5 µM
SMILES: CC1=CC[C@H](CCSc2nc(C34CC5CC(CC(C5)C3)C4)n[nH]2)C1(C)C [14a, 3-(Adamantan-1-yl)-5-((2-((R)-2,2,3-trimethylcyclopent-3-en-1-yl)ethyl)thio)-1H-1,2,4-triazole]
effect on the action of topotecan on HEK293A cells (in words) [1]: protected HEK293A cells from the action of topotecan
Effect ([2]; Tpc 0.3 µM + 20 µM compound): 0.17
Effect ([2]; Tpc 0.6 µM + 20 µM compound): 0.47
CI ([2]; Tpc 2.5 µM + 20 µM compound): 0.4461
Effect ([2]; Tpc 2.5 µM + 20 µM compound): 0.92
CI ([2]; Tpc 5.0 µM + 20 µM compound): 0.7177
Effect ([2]; Tpc 5.0 µM + 20 µM compound): 0.96
CI ([2]; Tpc […] + 20 µM compound): 0.2872
Effect ([2]; Tpc […] + 20 µM compound): 0.81
CC50 at 3 days [3]: 47 ± 3 µM
CC50 at 3 days [5]: 53 ± 8 µM
intrinsic toxicity (in words) [6]: moderate toxicity

melting point: 111.8 to 112.4 °C
IC50 [4]: 6.1 ± 0.1 µM
SMILES: CC1=CC[C@@H](CCSc2nc(C34CC5CC(CC(C5)C3)C4)n[nH]2)C1(C)C [14b, 3-(Adamantan-1-yl)-5-((2-((S)-2,2,3-trimethylcyclopent-3-en-1-yl)ethyl)thio)-1H-1,2,4-triazole]
CI ([2]; Tpc 0.3 µM + 20 µM compound): 0.00419
Effect ([2]; Tpc 0.3 µM + 20 µM compound): 0.94
CI ([2]; Tpc 0.5 µM + 20 µM compound): 0.00165
Effect ([2]; Tpc 0.5 µM + 20 µM compound): 0.97
CI ([2]; Tpc 1.0 µM + 20 µM compound): 0.00117
Effect ([2]; Tpc 1.0 µM + 20 µM compound): 0.98
CI ([2]; Tpc 2.0 µM + 20 µM compound): 0.00166
Effect ([2]; Tpc 2.0 µM + 20 µM compound): 0.98
CI ([2]; Tpc 4.0 µM + 20 µM compound): 0.00113
Effect ([2]; Tpc 4.0 µM + 20 µM compound): 0.99
CC50 at 3 days [3]: 50 ± 3 µM
CC50 at 3 days [5]: 54 ± 7 µM
intrinsic toxicity (in words) [6]: moderate toxicity

melting point: 209.2 to 210.1 °C
IC50 [4]: 6.1 ± 2.6 µM
SMILES: CC1=CC[C@H](CC(=O)Nc2nnc(C34CC5CC(CC(C5)C3)C4)s2)C1(C)C [15a, N-(5-(Adamantan-1-yl)-1,3,4-thiadiazol-2-yl)-2-((R)-2,2,3-trimethylcyclopent-3-en-1-yl)acetamide]
Effect ([2]; Tpc 0.3 µM + 50 µM compound): 0.27
CI ([2]; Tpc 0.5 µM + 50 µM compound): 0.07887
Effect ([2]; Tpc 0.5 µM + 50 µM compound): 0.53
CI ([2]; Tpc 1.0 µM + 50 µM compound): 0.06365
Effect ([2]; Tpc 1.0 µM + 50 µM compound): 0.73
CI ([2]; Tpc 2.0 µM + 50 µM compound): 0.06893
Effect ([2]; Tpc 2.0 µM + 50 µM compound): 0.83
CI ([2]; Tpc 4.0 µM + 50 µM compound): 0.07307
Effect ([2]; Tpc 4.0 µM + 50 µM compound): 0.9
CC50 at 3 days [3]: > 100 µM
CC50 at 3 days [5]: > 100 µM

melting point: 210.9 °C
IC50 [4]: ~5 µM
SMILES: CC1=CC[C@@H](CC(=O)Nc2nnc(C34CC5CC(CC(C5)C3)C4)s2)C1(C)C [15b, N-(5-(Adamantan-1-yl)-1,3,4-thiadiazol-2-yl)-2-((S)-2,2,3-trimethylcyclopent-3-en-1-yl)acetamide]
effect on the action of topotecan on HEK293A cells (in words) [1]: protected HEK293A cells from the action of topotecan
Effect ([2]; Tpc 0.3 µM + 50 µM compound): 0.48
CI ([2]; Tpc 0.5 µM + 50 µM compound): 0.05563
Effect ([2]; Tpc 0.5 µM + 50 µM compound): 0.69
CI ([2]; Tpc 1.0 µM + 50 µM compound): 0.04653
Effect ([2]; Tpc 1.0 µM + 50 µM compound): 0.84
CI ([2]; Tpc 2.0 µM + 50 µM compound): 0.05382
Effect ([2]; Tpc 2.0 µM + 50 µM compound): 0.9
CI ([2]; Tpc 4.0 µM + 50 µM compound): 0.09564
Effect ([2]; Tpc 4.0 µM + 50 µM compound): 0.91
CC50 at 3 days [3]: > 100 µM
CC50 at 3 days [5]: > 100 µM

SMILES: CC[C@@]1(O)C(=O)OCc2c1cc1n(c2=O)Cc2cc3c(CN(C)C)c(O)ccc3nc2-1 [Tpc, topotecan]
CC50 at 3 days [7]: 0.066 ± 0.028 µM
CC50 [8]: 4 ± 1.3 µM

melting point: 269.6 °C
IC50 [4]: > 30 µM
SMILES: CC1(C)[C@@H]2CC[C@@]1(C(=O)Nc1nnc(C34CC5CC(CC(C5)C3)C4)s1)C(=O)C2 [compound 16, (1S,4R)-N-(5-(Adamantan-1-yl)-1,3,4-thiadiazol-2-yl)-7,7-dimethyl-2-oxobicyclo[2.2.1]heptane-1-carboxamide]
Effect ([2]; Tpc 0.3 µM + 20 µM compound): 0.035
Effect ([2]; Tpc 0.6 µM + 20 µM compound): 0.1
CI ([2]; Tpc 2.5 µM + 20 µM compound): 0.5114
Effect ([2]; Tpc 2.5 µM + 20 µM compound): 0.75
CI ([2]; Tpc 5.0 µM + 20 µM compound): 0.8721
Effect ([2]; Tpc 5.0 µM + 20 µM compound): 0.85
Effect ([2]; Tpc […] + 20 µM compound): 0.36
CC50 at 3 days [3]: 23 ± 10 µM
anti-TDP1 activity (in words) [4]: not exhibiting anti-TDP1 activity; also recorded: ineffective
CC50 at 3 days [5]: 20 ± 8 µM
intrinsic toxicity (in words) [6]: moderate toxicity

melting point: 200.3 to 200.5 °C
IC50 [4]: > 30 µM
SMILES: CC1(C)[C@@H]2CC[C@@]1(CS(=O)(=O)Nc1nnc(C34CC5CC(CC(C5)C3)C4)s1)C(=O)C2 [compound 17, N-(5-(Adamantan-1-yl)-1,3,4-thiadiazol-2-yl)-1-((1S,4R)-7,7-dimethyl-2-oxobicyclo[2.2.1]heptan-1-yl)methanesulfonamide]
Effect ([2]; Tpc 0.3 µM + 20 µM compound): 1.0E-4
Effect ([2]; Tpc 0.6 µM + 20 µM compound): 0.02
CI ([2]; Tpc 2.5 µM + 20 µM compound): 0.7924
Effect ([2]; Tpc 2.5 µM + 20 µM compound): 0.6
CI ([2]; Tpc 5.0 µM + 20 µM compound): 1.176
Effect ([2]; Tpc 5.0 µM + 20 µM compound): 0.81
Effect ([2]; Tpc […] + 20 µM compound): 0.25
CC50 at 3 days [3]: > 100 µM
anti-TDP1 activity (in words) [4]: not exhibiting anti-TDP1 activity; also recorded: ineffective
CC50 at 3 days [5]: 100 ± 20 µM
